Experimental data published in patent US5747239A, “Synthetic peptides specific for the detection of antibodies to HCV, diagnosis of HCV infection and preventions thereof as vaccines” (United Biomedical, Inc., priority 1994, dated 1998).

Columns and labels:
Assay type in all cases: binding, human
antibodies to HCV [1] = test: Envelope/NS-1 peptide ELISA, samples nonreactive on HCV core (VIIIE) and NS-4 (IIH) peptides
Procedure: In addition to screening on Panel III samples, the envelope/NS-1 peptides were also tested against samples from plasmapheresis donors who had elevated ALT levels but were non-reactive on the HCV from the core (e.g. peptide VIIIE) and NS-4 (e.g. peptide IIH) regions screening EIA. Six of these samples, which may represent early seroconversion samples, were reactive on one or more envelope/NS-1 peptide (Table 8d). The absorbance values on these HCV EIA nonreactive samples are lower than the values found for Panel III samples. In the case of Pep7 and Pep10, their shorter segments, 225B and 246C, respectively, gave greater immunoreactivity, in contrast to the performance on Panel III.

antibodies to HCV [2] = test: Envelope/NS-1 peptide ELISA, anti-HCV positive plasmapheresis donors with elevated ALT (Panel III); settings: for % Relative Immunoreactivity: envelope/NS-1 peptides, Panel III (17 samples), peptide 254B as a standard
Procedure: To select a panel of samples with reactivity to peptides from the envelope/NS-1 region, 97 such samples from anti-HCV positive plasmapheresis donors with elevated ALT levels were tested with peptide 254B. […] 17 samples with the greatest reactivity with peptide 254B were chosen to form a third panel (Panel III) to screen for the immunoreactivity of the other 20 peptides from the envelope/NS-1 region. The individual absorbance values of each of the 17 samples on the four peptides with the greatest reactivity, i.e. 255C (pep7), 254B (pep8), 247B (pep9), and 246D (pep10), are listed in Table 8b.

antibodies to HCV [3] = test: Peptide ELISA for relative immunoreactivity, 8 member HCV serum panel (Panel I); parameters: relative immunoreactivity value: concentration or dose not given beside the values; settings: for % IP: NS-5 peptides (Table 12), pep11 as a standard
Procedure: As an example to illustrate how relative (%) immunoreactivity for HCV synthetic peptides is measured, wells of 96-well plates are coated for 1 hour at 37° C., with each of the following peptides: IIH, V, VIIIE and pep11 at 5 ug/mL at 100 uL per well in 10 mM NaHCO3 buffer, pH 9.5. The peptide coated wells were then incubated with 250 uL of 3% by weight of gelatin in PBS in 37° C. for 1 hour to block non-specificprotein binding sites, followed by three washes with PBS containing 0.05% by volume of TWEEN 20 and then dried. The test specimens containing a panel of eight well-characterized HCV antibody positive patient sera were diluted with PBS containing 20% by volume normal goat serum, 1% by weight gelatin and 0.05% by volume TWEEN 20 at dilutions of 1:20 volume to volume, respectively. 200 uL of the diluted specimens were added to each of the wells and allowed to react for 15 minutes at 37° C.
The wells were then washed six times with 0.05% by volume TWEEN 20 in PBS in order to remove unbound antibodies. Horseradish peroxidase conjugated goat anti-human IgG was used as a second antibody tracer to bind with the HCV antibody-peptide antigen complex formed in positive wells. 100 uL of peroxidase labeled goat anti-human IgG at a dilution of 1:1800 in 1% by volume normal goat serum, 0.05% by volume TWEEN 20 in PBS was added to each well and incubated at 37° C. for another 15 minutes.
The wells were washed six times with 0.05% by volume TWEEN 20 PBS to remove unbound antibody and reacted with 100 uL of the substrate mixture containing 0.04% by weight orthophenylenediamine (OPD) and 0.12% by volume hydrogen peroxide in sodium citrate buffer, pH 5.0.
This substrate mixture was used to detect the peroxidase label by forming a colored product. Reactions were stopped by the addition of 100 uL of 1.0M H2 SO4 and the A492 mm measured. Results of relative immunoreactivity for each of the peptides obtained from this study are shown in Table A using peptide II H as the reference.

antibodies to HCV [4] = test: NS-5 peptide ELISA, group of 5 HCV positive sera; settings: for % Relative Immunoreactivity: NS-5 peptides, 5 HCV positive sera, Pep5 = 100
Procedure: Wells of 96-well plates were coated for 1 hour at 37° C. with each of the three peptides derived from the NS-5 region of HCV (designated as pep4, pep5 and pep6).

antibodies to HCV [5] = test: EIA of pep3 after different extraction conditions following HF cleavage; settings: for % Decrease: Pep3' versus Pep3
Description: Peptide extraction conditions after HF cleavage were altered to test for their effect on peptide immunopotency after HF cleavage. Pep3 (or 279A) was extracted with acetic acid at pH 2, whereas pep3' was extracted with ammonium bicarbonate at pH 8.

[6] = sample 1 (first line, number not given)

Substance	Absorbance (antibodies to HCV [1]; [6])	Absorbance (antibodies to HCV [1]; sample 2)	Absorbance (antibodies to HCV [1]; sample 3)	Absorbance (antibodies to HCV [1]; sample 4)	Absorbance (antibodies to HCV [1]; sample 5)	% Relative Immunoreactivity (antibodies to HCV [2]) [%]	% IP (antibodies to HCV [3]; Panel I) [%]	% Relative Immunoreactivity (antibodies to HCV [4]) [%]	EIA reading per sample (antibodies to HCV [4]; Sample No. 1)	EIA reading per sample (antibodies to HCV [4]; Sample No. 2)	EIA reading per sample (antibodies to HCV [4]; Sample No. 3)	EIA reading per sample (antibodies to HCV [4]; Sample No. 4)	EIA reading per sample (antibodies to HCV [4]; Sample No. 5)	other results
CLTVPASAYQVRNSTGLYHVTNDCPNSSIVYEAHDAILHTPGCVPCVREGNVSRC [255C]	0.098	0.346	0.300	0.021	0.231	51.4	–	–	–	–	–	–	–	Absorbance (antibodies to HCV [1]; sample 6): 0.017; Absorbance (antibodies to HCV [2]; Panel III sample 2): 0.017; Absorbance (antibodies to HCV [2]; Panel III sample 3): 0.235; Absorbance (antibodies to HCV [2]; Panel III sample 4): 0.066; Absorbance (antibodies to HCV [2]; Panel III sample 5): 0.711; Absorbance (antibodies to HCV [2]; Panel III sample 6): 0.106; Absorbance (antibodies to HCV [2]; Panel III sample 7): 0.784; Absorbance (antibodies to HCV [2]; Panel III sample 8): 0.037; Absorbance (antibodies to HCV [2]; Panel III sample 9): 0.019; Absorbance (antibodies to HCV [2]; Panel III sample 10): 0.313; Absorbance (antibodies to HCV [2]; Panel III sample 11): 0.035; Absorbance (antibodies to HCV [2]; Panel III sample 14): 0.047; Absorbance (antibodies to HCV [2]; Panel III sample 15): 0.012; Absorbance (antibodies to HCV [2]; Panel III sample 16): 0.064; Absorbance (antibodies to HCV [2]; Panel III sample 17): 0.077
DAELIEANLLWRQEMGGNITRVESENKVVILDSFDPLVAEEDER [Pep5]	–	–	–	–	–	–	47.6	100.0	2.942	0.370	0.616	1.316	1.783	–
DPSHITAEAAGRRLARGSPPSVASSSASQLSAPSLKATCTANHDSP [Pep4]	–	–	–	–	–	–	17.1	28.6	0.468	0.659	0.675	0.063	0.144	–
INSTALNCNESLNTGWLAGLIYQHKFNSSGCPERLASC [246C]	0.240	0.015	0.023	0.046	0.009	97.6	–	–	–	–	–	–	–	–
Pep3': pep3 (279A) sequence extracted with ammonium bicarbonate at pH 8 after HF cleavage (GCSGGAYDIIICDECHSTDATSILGIGTVLDQAETAG)	–	–	–	–	–	–	–	–	–	–	–	–	–	share of the panel reactive (antibodies to HCV [3]; Panel I): half of the panel is reactive; relative immunoreactivity value (antibodies to HCV [3]; Panel I, compared with peptide VIIIE): 23.9%; absorbances of some additional reactive samples (antibodies to HCV [3]; additional reactive samples): > 2000 mA; A492 nm (mA) by EIA (antibodies to HCV [5]; NRC: Negative Control): 1 mA; % Decrease (antibodies to HCV [5]; SRC): 77.6%; % Decrease (antibodies to HCV [5]; WRC): 89.6%; % Decrease (antibodies to HCV [5]; sample #1): 78.8%; % Decrease (antibodies to HCV [5]; sample #2): 90.0%; % Decrease (antibodies to HCV [5]; sample #3): 91.5%; % Decrease (antibodies to HCV [5]; sample #4): 99.3%; % Decrease (antibodies to HCV [5]; sample #5): 88.0%
